# According to patent US20050239205A1, “Gb virus b based replicons and replicon enhanced cells” (priority 2002, published 2005):
# Key:
# GBV-B replicon = assay: Effect of test compound on GBV-B replicon RNA in B76.1/Huh7 cells (TaqMan, neo primer set); format: cell-based
# Protocol: (§1) Huh7 cell clones carrying GBV-B or HCV replicons were used to test the effect of human interferon alpha-2b. Cells (1×10^5) were plated into each well of a series of wells of Multiwell-6-wells plates (falcon cat N. 35-3046) in medium without G418. After 16 hours the medium was discarded and increasing concentrations of the test compound in fresh medium were added to each series of wells. Controls were run using the specific compound solvent at the appropriate dilution.
# […] Total RNA was purified as described in the TRizol protocol (Life Technologies). Ten out of 100 μl of total RNA were used in each reaction.
# Taq Man analysis was performed using a neomycin primer set (taq NEO 1, GATGGATTGCACGCAGGTT (SEQ. ID. NO. 17), and taq NEO 5, […] (SEQ. ID. NO. 18)) and a NEO probe (1,6-carboxyfluorescein-TCCGGCCGCTTGGGT GGAG (SEQ. ID. NO. 19)-N,N,N′,N′-tetramethyl-6-carboxyrhodamine). Human GAPDH mRNA quantified with a specific primer set (PE Applied Biosystems) was used as an endogenous reference. GBV-B RNA extracted from mock-treated cells was used as a calibrator. Results from two independent experiments were analyzed using both the Comparative Ct Method and the standard curve method.
# Experiments were performed using 10^5 cells of B76.1/Huh7 and 10A plated into individual wells of 6-multiwell plate and incubated overnight in the absence of G418. […]
# GBV-B virus = assay: Infection of enhanced cells with GBV-B virus-containing serum by electroporation (Taqman); format: cell-based
# Protocol: GBV-B virus inoculum produced upon passage of virus in tamarins was used to infect Huh7 and cB76.1/Huh7 enhanced cells. GBV-B containing tamarin serum was layered onto 10^5 cells in multiwell-6-wells 1 day after plating at multiplicity of infection of 0.75 G.E./cell. After 6 hours adsorption, the virus-containing serum was removed, the cells extensively washed and incubated in the serum-free DMEM. Cells from individual wells were lyzed with Trizol at different times and GBV-B RNA quantified by Taqman.
# As an alternative method, 10^6 cells were mixed with undiluted virus-containing serum (10^6 G.E.) and subjected to electroporation. The cells were plated at a density of 10^5/well and treated as described for experiments of RNA electroporation. Duplicate wells were run in parallel, with and without interferon. Cells from individual wells were lyzed with Trizol at different times and GBV-B RNA quantified by Taqman. The amount of G.E. detectable immediately after electroporation and wash was 10^3 G.E., it was undetectable at 24 and 48 hours, at day 3 it was 10^4 G.E.; at day 6 it was 5×10^3 (possibly inhibition due to cell density); in corresponding wells treated with interferon the RNA was undetectable. […] RNA was quantified at day 13 and 16 giving a figure corresponding to 4×10^3 G.E. and 1.2×10^4 G.E. respectively. […]
# HCV replicon = assay: Effect of test compound on HCV replicon RNA in 10A Huh7 cells (TaqMan, neo primer set); format: cell-based; details: 10A cells (HCV replicon in Huh7), up to 3 days, replicon RNA normalized to GAPDH
# Protocol: as §1
# Cells were grown up to 3 days in the presence of compounds or compound solvent without a compound, avoiding cell confluence, and finally lysed with TRIzol. Total RNA was purified as described in the TRizol protocol (Life Technologies). Ten out of 100 μl of total RNA were used in each reaction.
# Taq Man analysis was performed using a neomycin primer set (taq NEO 1, GATGGATTGCACGCAGGTT (SEQ. ID. NO. 17), and taq NEO 5, […] (SEQ. ID. NO. 18)) and a NEO probe (1,6-carboxyfluorescein-TCCGGCCGCTTGGGT GGAG (SEQ. ID. NO. 19)-N,N,N′,N′-tetramethyl-6-carboxyrhodamine). Human GAPDH mRNA quantified with a specific primer set (PE Applied Biosystems) was used as an endogenous reference. GBV-B RNA extracted from mock-treated cells was used as a calibrator. Results from two independent experiments were analyzed using both the Comparative Ct Method and the standard curve method. […]
# [1] = test system: GBV-B full-length genomic FL3 RNA; assay: Replication of full-length GBV-B FL3 RNA transfected in cB76.1/Huh7 enhanced cells (Taqman); format: cell-based
# Text: GBV-B RNA was quantified by a real-time 5′ exonuclease PCR (TaqMan) assay using a primer/probe set that recognized a portion of the GBV-B 5′UTR. The primers (GBV-B-F3, GTAGGCGGCGGGACTCAT (SEQ. ID. NO. 14), and GBV-B-R3, TCAGGGCCATCCAAGTCAA (SEQ. ID NO. 15)) and probe (GBV-B-P3,6-carboxyfluorescein-[…] (SEQ. ID. NO. 16)-N,N,N′,N′-tetramethyl-6-carboxyrhodamine) were selected using the Primer Express software (PE Applied Biosystems). The fluorescent probe was obtained from PE Applied Biosystems. The primers were used at 10 pmol/50 μl reaction, and the probe was used at 5 pmol/50 μl reaction.
# PCR was were performed using a TaqMan Gold RT-PCR kit (PE Applied Biosystems). […]
# RNA transcribed from a plasmid containing the first 2000 nucleotides of the GBV-B genome was used as a standard to establish genome equivalents. […] RNA was quantified by absorbance at 260 nm and stored at −80° C.
# All reactions were run in duplicate by using the ABI Prism 7700 Sequence Detection System (PE Applied Biosystems). […] Results from two independent experiments were analyzed using both the Comparative Ct Method and the standard curve method.
# GBV-B full-length genomic FL3 RNA (EMBL accession number AJ277947) was transfected in Huh7 and in enhanced cells cB76.1/Huh7 in parallel with the corresponding GAA control. Intracellular GBV-B RNA was measured by Taqman in a time-course experiment.
# RepB replication = assay: beta-lactamase stain of bla-RepB transfected cB76.1/Huh7 cells; format: cell-based, GBV-B
# Protocol: Immediately after electric pulses cells were diluted in 8 ml complete Dulbecco's Modified Eagle Medium (DMEM) and processed with different protocols depending on the selection/tracer used. In the case of neo-constructs transformation, cells were divided in 3 plates of 15 cm diameter and on the following day the selecting antibiotic G418 (Sigma G-9516) was added at a concentration of 0.250, 0.5 or 1 mg/ml. […] Surviving clones were picked-up and expanded by growing them in individual plates. When a bla reporter gene was used, 1.5 ml, 1.0 ml and 0.5 ml of transfected cells suspension were plated in each well of Multiwell-6-wells plate (Falcon cat. N. 35-3046) to be stained respectively at 24, 48 and 72 hours.
# Aurora substrate system “CCF4” was used to measure β-lactamase activity. When quantitative PCR was used to measure transient replication, cells were plated 1-2×10^5/well in “6-multi-well plate”. After 3 days total RNA was purified as described in the TRIzol protocol (Life Technologies) and 10 out of 100 μl of total RNA were used in individual TaqMan reactions.
# The increased efficiency of replication of RepB RNA in cB76.1/Huh7 cells compared to wild type Huh7 cells was also monitored using a colorimetric assay after transfection of RNA transcribed from bla-RepB plasmid. The bla-RepB plasmid expresses a […] marker in place of the selector neomycin phosphotransferase. […]
substance,measurement,setting,value
human interferon alpha-2b [Human alpha-IFN],Replicon RNA after curing treatment,"GBV-B replicon; B76.1/Huh7, 100 U/ml for 15 days in the absence of neomycin, TaqMan at end of treatment",disappearance of the selectable RNA replicon molecules
same,IC50 on GBV-B replicon,"GBV-B replicon; B76.1/Huh7 cells, up to 3 days, replicon RNA normalized to GAPDH",0.45 U/ml
same,GBV-B RNA in cells cultivated in the presence of IFN,"GBV-B virus; after splits, points up to day 16",background signals
same,GBV-B RNA in treated wells,GBV-B virus; day 3 and day 6 after electroporation with virus-containing serum,undetectable
same,IC50 on HCV replicon,HCV replicon,0.58 U/ml
same,Decrease of FL3 RNA amount,"[1]; cB76.1/Huh7 transfected with FL3, day 6",10-20 fold
same,Effect on GAA mutant RNA amount,"[1]; cB76.1/Huh7 transfected with mutant GAA construct, day 6",did not affect
same,Number of blue cells,RepB replication,reduced the number of blue cells to background levels
